Data on five compounds can be found in patent US7883859B2, “Method for producing active and stable acetylcholinesterase bioassay element” (priority 2005, dated 2011).

Test [1] concerns acetylcholinesterase. As to the kind of experiment: Inhibition of the immobilized enzyme of the bioassay element by pesticides (FIG. 5). It is filed as biochemical. As to conditions: for detection sensitivity of the bioassay element (rank among five pesticides; carbofuran>naled>malathion>carbaryl=trichlorfon): at any same concentration. The text has this: (§1) The bioassay element of the present invention is referred to FIG. 1 which illustrates the structure of bioassay element in one embodiment of the present invention. The bioassay element includes a carrier 100, an enzyme 110 as a testing material, and a coating film 120. The carrier includes a membrane 101 and a stationary layer 102 applying on the membrane 101. The enzyme 110 is dispersed in the coating film 120 that covers on the surface of the stationary layer 102. The coating film 120 effectively increases the amount of the immobilized enzyme 110 and raises the activity of the enzyme 110 and fixes the enzyme 110 on the surface of the carrier. In the working example of the present invention, the enzyme acetylcholinesterase is selected, and the coating film 120 consists of casein, calcium ions, a color developer (DTNB), and trehalose. The stationary layer 102 consists of casein and calcium ions.
In the working example of the present invention, the stationary-layer mixed solution was prepared by mixing 120 mM of a calcium ion solution and 2.5% of a casein solution in a ratio of 1:14 by volume. The bioassay solution was prepared by mixing an enzyme solution and the mixed solution containing casein in a ratio of 5:7 by volume. The enzyme solution was prepared by mixing 1.52 U/μl of an enzyme and 5% of trehalose in a ratio of 2.61:108 by volume. The mixed solution containing casein was mixed with a color developer, 120 mM of a calcium ion solution and 4% of a casein solution in a ratio of (0.009 to 0.012):1:(6 to 7.75) (w/v/v).
The results of the inhibiting effect of several pesticides (with different concentrations) on the bioassay element of the present invention are referred to FIG. 5. […] At the same concentration, the higher inhibition represents that the enzyme has higher detection sensitivity to pesticide. […] Within the linear relationship between the concentration of each pesticide and the inhibition of the enzyme, a biosensor capable of quantitatively detecting pesticides in association with optical sensors can be designed.
Therefore, if the inhibition of the enzyme activity is greater than 30%, it should be very easy to distinguish the yellow-color level difference by human eyes. In addition, when the concentration of naled was greater than 3.5 ppm and the concentrations of malathion, trichlorfon and carbaryl were greater than 7 ppm, the inhibition of the enzyme activity would be greater than 60%. Thus, the color would become colorless.

In test [2] the test system is acetylcholinesterase. As to the kind of experiment: Color change of the bioassay element against pesticides, judged by human eyes (FIG. 6). As to conditions: color changes from yellow to yellowish. It is filed as biochemical.
Source text: as §1
If the inhibition of the enzyme activity is greater than 60%, the color will become colorless. To discriminate the color change by human eyes, the concentrations of trichlorfon and carbaryl are about 3 ppm, malathion and naled are about 1 ppm, carbafuran is about 0.1 ppm.

Consider `CNC(=O)Oc1cccc2c1OC(C)(C)C2` [carbofuran], for which, in the test on acetylcholinesterase [1], the “concentration range with linear relationship between pesticide concentration and inhibition of the enzyme activity” value lay in the range of 0 to 0.1 ppm; the “pesticide concentration above which the increase of inhibition is plateau” value is on record as “greater than 0.1 ppm”; the “detection sensitivity of the bioassay element (rank among five pesticides; carbofuran>naled>malathion>carbaryl=trichlorfon)” value (shortened to “detection sensitivity”) was “highest”. In addition, the “inhibition of the enzyme activity” value in the test with acetylcholinesterase [1] (pesticide concentration about 0.1 ppm) worked out at 65%. Moreover, in the test on acetylcholinesterase [2], the “concentration to discriminate the color change by human eyes” value is on record as “about 0.1 ppm”.

As to `CCOC(=O)CC(SP(=S)(OC)OC)C(=O)OCC` (stereo not shown) [malathion], in the test with acetylcholinesterase [1], the “detection sensitivity” value is “next”. The “inhibition of the enzyme activity” value in the test on acetylcholinesterase [1] (pesticide concentration 1 ppm) was 28%. Also, the “concentration to discriminate the color change by human eyes” value with acetylcholinesterase [2] is “about 1 ppm”.

As for `CNC(=O)Oc1cccc2ccccc12` [carbaryl], in the test on acetylcholinesterase [1], the “concentration dependence of inhibition of the enzyme activity” value was “increased with increasing concentrations” and the “detection sensitivity” value is listed as “lowest”. Besides, in the test on acetylcholinesterase [1] (pesticide concentration 3 ppm), the “inhibition of the enzyme activity” value is “about 28%”. Also, the “concentration to discriminate the color change by human eyes” value with acetylcholinesterase [2] was “about 3 ppm”.

Consider `COP(=O)(OC)OC(Br)C(Cl)(Cl)Br` (stereo not shown) [naled], for which the “detection sensitivity” value in the test with acetylcholinesterase [1] is reported as “next”. Moreover, the “inhibition of the enzyme activity” value in the test on acetylcholinesterase [1] (pesticide concentration 1 ppm) came out at 39%. Besides, the “concentration to discriminate the color change by human eyes” value in the test with acetylcholinesterase [2] is “about 1 ppm”.

As for `COP(=O)(OC)C(O)C(Cl)(Cl)Cl` (stereo not shown) [trichlorfon], in the test with acetylcholinesterase [1], the “concentration dependence of inhibition of the enzyme activity” value is recorded as “increased with increasing concentrations” and the “detection sensitivity” value is reported as “lowest”. In addition, the “inhibition of the enzyme activity” value in the test with acetylcholinesterase [1] (pesticide concentration 3 ppm) is “about 28%”. In addition, in the test with acetylcholinesterase [2], the “concentration to discriminate the color change by human eyes” value is “about 3 ppm”.
